Consider five compounds from patent US20220110936A1, “PHARMACEUTICAL COMPOSITION FOR TREATMENT OF NEURODEGENERATIVE DISEASES OR DISEASES CAUSED BY ABNORMALITY OF RNA BINDING PROTEIN AND APPLICATIONS THEREOF” (Shanghai Institute of Organic Chemistry, Chinese Academy of …, priority 2019, published 2022).

One series addresses T1, hnRNP A1 (Homo sapiens, UniProt P09651).
T1 construct: host or cells: E. coli BL21 (DE3) pLysS
Briefly: In vitro liquid-liquid phase separation (LLPS) of hnRNP A1. Conditions: added under critical conditions. On the procedure:
pET9d-hnRNP A1 (Addgene) was used for hnRNP A1 protein expression in E. coli BL21 (DE3) pLysS (TranGeneBiotech). After 0.4 mM IPTG (SangonBiotech) induction at 25° C. for 15 h, the obtained bacteria were collected by centrifugation, and lysed by lysis buffer (50 mM Tris-HCl at pH 7.5, 2 mM DTT, 1 mM PMSF, 5% glycerin, and 0.1 mg/mL RNase A). Supernatant was collected by centrifugating the lysate at a high speed at 4° C. and then transferred to a 5 ml SP column in an AKTA (GE Healthcare) machine. The protein binded on the column was eluted with a mixture (9:1) of buffer A (50 mM Tris-HCl pH 7.5, 2 mM DTT and 5% glycerin) and buffer B (buffer A with 1 M NaCl). The eluted protein was purified by Superdex 75 16/600 column (GE Healthcare). The purified protein was dissolved in stock buffer (50 mM Tris-HCl pH 7.5, 500 mM NaCl and 2 mM DTT) for subsequent experiments.
The purified hnRNP A1 protein was mixed with a certain concentration of PAR (Trevigen) under a certain salt concentration. The reaction system was 50 mM Tris-HCl, pH 7.5, 10% (w/v) […] (Sigma) and 2 mM DTT. After the mixture was incubated at room temperature for 3 minutes, 5 μl was dropped on a glass slide for observation with an SP8 confocal microscope (Leica).

In the next series the test system is hnRNP A1 and TDP-43. Briefly: In vitro co-phase separation of hnRNP A1 and TDP-43 fragments. How it is done:
TDP-43^1-274: The expression plasmid pET-28a-TDP-43^1-274-6×His was expressed in BL21 E. coli (DE3) (TranGeneBiotech) after induction by 50 uM IPTG (SangonBiotech) at 19° C. for 16 h. The resulting bacteria were collected by centrifugation, and lysed by lysis buffer (50 mM Tris-HCl, 500 mM NaCl, pH 8.0, 10 mM imidazole, 4 mM β-mercaptoethanol, 1 mM PMSF, and 0.1 mg/mL RNase A). Supernatant was collected by centrifugating the lysate at low temperature and then purified and enriched by Ni column (GE Healthcare). The protein enriched by Ni columns was eluted with eluent (50 mM Tris-HCl, 500 mM NaCl, pH 8.0, 250 mM imidazole and 4 mM β-mercaptoethanol), and then purified with Superdex 200 […] column (GE Healthcare). The purified protein was finally dissolved in a storage buffer (50 mM Tris-HCl pH 7.5, 300 mM NaCl and 2 mM DTT) for subsequent experiments.
TDP-43^274-414: This protein was expressed in BL21 E. coli (DE3) (TranGeneBiotech) by adding 50 uM IPTG (SangonBiotech) at 37° C. for inducing the expression of the protein in inclusion bodies. Collected bacteria were lysed with denaturing lysis buffer (50 mM Tris-HCl, pH 8.0 and 6 M guanidine hydrochloride). The lysis product was centrifuged at high speed for 1 h at 4° C. and the supernatant was collected for purification by Ni column. The proteins were eluted with denaturing elution solution (50 mM Tris-HCl at pH 8.0, 6 M guanidine hydrochloride and 50 mM imidazole) and then further purified by HPLC (Agilent) and the resulting product was lyophilized using a freeze-dryer (Thermo Fisher) and then prepared for use.
The purified TDP-43^1-274 and hnRNP A1 proteins (obtained in Example 6) were diluted separately into desalting reaction solution (50 mM Tris-HCl, pH 7.5, 500 mM NaCl and 4 mM Tris(2-Carboxyethyl) Phosphine (TCEP) (Invitrogen)), and DTT was removed using a desalting column (GE Healthcare). After desalting, TDP-43^1-274 and hnRNP A1 proteins were incubated for 2 h at room temperature with 5 times the volume of AlexaFluor-555 C2-malemide (Invitrogen) or AlexaFluor-647 C2-malemide (Invitrogen), respectively. […]

For series [1], the system named is stress granules containing hnRNP A1 protein in HeLa cells. Briefly: Assembly of stress granules containing hnRNP A1 under sodium arsenite (immunofluorescence). In kind it is cell-based, human. Conditions: 20 μM, 3 h pretreatment, 100 μM sodium arsenite 0, 10, 30 min, vs DMSO. On the procedure: HeLa cells were cultivated in Dulbecco's modified Eagle's medium (DMEM) (sigma) containing 10% fetal bovine serum (FBS) (Biowest). Cells were purchased from American Type Culture Collection (ATCC) and grown at 37° C., 5% carbon dioxide. In the present invention, unless otherwise specified, cell were seeded 12-18 hours in advance in 24-well plates (Corning) containing glass slides (Thermo) at a density of 2×10^5/ml experiments if the cells were used for subsequent immunofluorescence assays, cells were seeded 12-18 hours in advance in 12-well or 6-well plates at a density of 5×10^5/ml if the cells were used for subsequent WB detection assays.
Plasmid transfection: The plasmid pCAG-hnRNP A1-Flag constructed in 1.1.1 was transfected with PolyJet™ reagent (SignaGen) (the amount of transfection plasmid is 0.8 μg/ml, and the ratio of transfection reagent to transfection plasmid is 1:2 (mass volume percentage, for example, […])). Cells were seeded 12-18 hours in advance and transfection was started when the confluence of cell reached about 70%. About 6 hours after transfection, culture medium were changed to ensure growth status of cells. After the exogenous protein was expressed for 24-48 h, the next step of the experiment can be carried out. […]

A further series concerns PARP. Briefly: Western blot of intracellular PARylation level in HeLa cells. In kind it is cell-based, human. The following applies: 20 μM, 3 h, vs DMSO. For orientation: Immunoblotting shows a protein as a band on a membrane.
In series [2] the test system is stress granules containing TDP-43 protein in HeLa cells. Briefly: Assembly of stress granules containing TDP-43 under sodium arsenite (immunofluorescence). Conditions: 20 μM, 3 h pretreatment, vs DMSO. In kind it is cell-based, human. How it is done: Drug treatment: in order to inhibit the level of intracellular PARylation, 20 μM PARP inhibitor Olaparib (Selleck) was added 3 hours before harvesting the plasmid-transfected samples mentioned above, and the control group was treated with an equal volume of DMSO.
In order to induce the production of stress granules, the HeLa cells collected in 1.1.3 were treated with 100 μM sodium arsenite (Sigma) for 0, 10 and 30 minutes, respectively.
Cells harvested after treatment in 1.1.4 above were washed once with PBS, fixed with 4% paraformaldehyde (Sangon Biotech) for 15 min, permeabilized with 0.5% Triton-X100 (Sigma) solution for 10 min, and finally incubated with PBST solution containing 3% goat serum (Sigma) (0.1% Tween 20 (Sigma) in PBS) for 1 h at room temperature and incubated overnight at 4° C. with antibodies (Rabbit anti-TIAR (CST), Mouse anti-Flag (Sigma)). The cells were washed with PBST three times at room temperature and incubated for 1 hour at room temperature. After washing three times with PBST at room temperature, fluorescent secondary antibodies (goat anti-mouse-Alexa Fluor 488 (Thermo), goat anti-rabbit-Alexa Fluor 568 (Thermo)) were added for labeling, and then Vectashield Antifade Mounting Medium with DAPI (Vector Laboratories) was used to seal the slices. The signals were observed and acquired under a 100× oil microscope on a Leica TCS SP8 confocal microscope. […]

Series [3] concerns motor neuron-like NSC-34 cells overexpressing TDP-43. The experiment in a line: Cell viability (CCK-8) of NSC-34 cells overexpressing TDP-43. In kind it is cell-based. The following applies: 5 μM. On the procedure: (§1) 293T cells were cultured in DMEM (sigma) containing 10% FBS (Biowest). NSC-34 cells were cultured with RPMI 1640 medium (Gibco, 11875-093) containing 10% FBS. Cells were grown at 37° C. with 5% carbon dioxide. Cells were both purchased from ATCC.
(§2) Lentiviral packaging plasmids and the corresponding exogenous hnRNP A1 or TDP-43 expression plasmids were transfected simultaneously in 293T cells with PolyJet™ transfection reagent. After 48 hours of transfection, the cell culture was collected by filtration with a 0.45 μm syringe filter (Millipore) and concentrated with Lenti-X™ Concentrator (Clontech), and the concentrated product was used for subsequent infection of NSC-34 cells.
(§3) NSC-34 cells were seeded one day in advance in 96-well plates (Corning) and the corresponding lentivirus was added for transfection. Cell viability was determined 48-72 h after transfection using Cell Counting Kit-8 (CCK-8) (Dojindo) kit. In brief, 10 μL of CCK-8 solution was added to each well. After incubation at 37° C. for 2.5 h, the absorbance light at 450 nm of the solution was detected with a Synergy2 microplate reader (BioTek Instruments) and cell viability values were calculated according to the instructions.
(§4) The siRNA transfection procedure was the same as that in Example 1, and the transfection time was 48-60 h. The corresponding siRNA sequences are as follows.

The subject of series [4] is motor neuron-like NSC-34 cells overexpressing hnRNP A1. The experiment in a line: Cell viability (CCK-8) of NSC-34 cells overexpressing hnRNP A1. In kind it is cell-based. How it is done: as §1, §2, §3, §4
Another series deals with ALS patients. Conditions: cited from earlier work.

T1 sequence (P09651 1-320 isoform P09651-2): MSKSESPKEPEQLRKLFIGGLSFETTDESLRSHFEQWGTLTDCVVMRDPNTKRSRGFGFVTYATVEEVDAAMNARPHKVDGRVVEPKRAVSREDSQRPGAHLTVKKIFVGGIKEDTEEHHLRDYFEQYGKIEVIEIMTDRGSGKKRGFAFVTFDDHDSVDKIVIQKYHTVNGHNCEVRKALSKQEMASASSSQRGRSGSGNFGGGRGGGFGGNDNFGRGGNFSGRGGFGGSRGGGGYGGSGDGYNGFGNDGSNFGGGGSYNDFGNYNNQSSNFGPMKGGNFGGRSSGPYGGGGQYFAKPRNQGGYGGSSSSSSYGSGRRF
Procedure for PARP: Drug treatment: in order to inhibit the level of intracellular PARylation, 20 μM PARP inhibitor Olaparib (Selleck) was added 3 hours before harvesting the plasmid-transfected samples mentioned above, and the control group was treated with an equal volume of DMSO. […]
Immunoblotting assay: the above boiled proteins were separated by 10% Bis-Tris SDS-PAGE (Invitrogen), then transferred to 0.22 μm PVDF membrane (Millipore), sealed with 5% skimmed milk powder, and added with corresponding antibodies (anti-pan-ADP-ribose binding reagent (Millipore), mouse anti-Tubulin (MLB), rabbit anti-PRAG (CST), mouse anti-GAPDH (Proteintech)) for immunoblotting assay. Membranes incubated with primary antibodies were then incubated with the corresponding secondary antibodies coupled with HRP (goat anti-mouse (Sigma), goat anti-rabbit (sigma)), and corresponding protein signals were detected in Amersham Imager 600 (GE Healthcare) using ECL luminescent solution (Tanon).

For the compound poly(ADP-ribose) [PAR], the “LLPS of hnRNP A1” value on hnRNP A1 is listed as “promoted”. Also, in the series with hnRNP A1 and TDP-43, the “co-phase separation of hnRNP A1 and TDP-43 1-274” value is reported as “can promote”. Besides, in the series on hnRNP A1 and TDP-43 (high concentration), the “co-phase separation of hnRNP A1 and TDP-43 274-414” value is listed as “cannot promote”; the “phase separation of hnRNP A1 or TDP-43 1-274 alone” value is “cannot promote”.
Turning to `O=C(c1cc(Cc2n[nH]c(=O)c3ccccc23)ccc1F)N1CCN(C(=O)C2CC2)CC1` [Olaparib], the “formation of intracellular stress granules and stress granules containing hnRNP A1” value in series [1] is listed as “delayed”. In addition, the “intracellular level of PARylation (WB)” value in the series on PARP was “significantly reduce”. Moreover, in series [2], the “formation of intracellular stress granules and stress granules containing TDP-43” value is recorded as “delayed”. The “cytotoxicity induced by overexpression of TDP-43” value in series [3] was “can reduce the cytotoxicity”. For the same compound, in series [4], the “hnRNP A1-induced neurocytotoxicity” value was “significant inhibitory effect”.
For the compound `Nc1nc2ccc(OC(F)(F)F)cc2s1` [Riluzole], in the series with ALS patients (ALS patients), the “prolongation of the patient's life” value is given as 3-6 months; the side effects entry was “nausea, dizziness and even pneumonia”.
As for `CC1=NN(c2ccccc2)C(=O)C1` [Edaravone], in the series with ALS patients (phase III clinical trials), the “physical impairment in ALS patients” value is reported as “alleviate some degree of physical impairment”.
As for heparin, the “LLPS of hnRNP A1” value on hnRNP A1 is given as “did not promote”.
